In test [1] the target is 5-hydroxytryptamine receptor 4 (Cavia porcellus, UniProt O70528). Description: Ability to block 5-HT4 receptor mediated effect of 5-HT was assessed in the guinea-pig distal colon longitudinal muscle myenteric plexus preparation (LMMP).
In test [2] the target is Serotonin 4 (5-HT4) receptor (Sus scrofa, UniProt Q6Q253). Nature of the test: Compound was evaluated for its ability to inhibit the binding of 5-HT4 receptor radioligand [125I]SB 207710 to piglet hippocampal membrane. Type of test: tissue-based, Hippocampus.
Sequence of Serotonin 4 (5-HT4) receptor (Q6Q253 whole entry): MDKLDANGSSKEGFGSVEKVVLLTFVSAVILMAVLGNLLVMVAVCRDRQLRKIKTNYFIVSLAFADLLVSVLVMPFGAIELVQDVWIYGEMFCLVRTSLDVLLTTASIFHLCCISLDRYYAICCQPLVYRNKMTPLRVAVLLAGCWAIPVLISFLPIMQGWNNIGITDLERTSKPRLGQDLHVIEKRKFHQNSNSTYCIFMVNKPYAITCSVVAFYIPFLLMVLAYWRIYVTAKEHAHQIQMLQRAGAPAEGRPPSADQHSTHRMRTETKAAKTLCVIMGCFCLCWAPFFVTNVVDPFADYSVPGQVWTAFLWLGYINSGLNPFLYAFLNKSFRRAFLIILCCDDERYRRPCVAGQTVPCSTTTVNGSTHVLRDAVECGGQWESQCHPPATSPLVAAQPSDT

Sequence of 5-hydroxytryptamine receptor 4 (O70528 whole entry): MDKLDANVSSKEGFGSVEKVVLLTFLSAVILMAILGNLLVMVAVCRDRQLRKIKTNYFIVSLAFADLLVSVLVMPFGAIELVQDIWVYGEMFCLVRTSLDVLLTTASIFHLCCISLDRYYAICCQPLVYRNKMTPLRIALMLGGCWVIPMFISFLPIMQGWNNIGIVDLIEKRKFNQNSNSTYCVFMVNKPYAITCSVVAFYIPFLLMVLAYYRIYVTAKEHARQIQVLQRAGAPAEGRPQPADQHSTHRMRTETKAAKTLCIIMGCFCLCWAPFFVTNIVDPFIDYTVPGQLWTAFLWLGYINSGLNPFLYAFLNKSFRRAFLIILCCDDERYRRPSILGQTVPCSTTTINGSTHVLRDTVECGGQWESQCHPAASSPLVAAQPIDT

On to `CCCCN1CCC(COC(=O)c2c[nH]c3ccccc23)CC1`, for which, in test [1], the half-inhibitory concentration (IC50) was 0.501 nM. In test [2], this molecule gave a Ki of 2.51 nM.
The corresponding values for `CCCCN1CCC(COC(=O)c2c3n(c4ccccc24)CCCCO3)CC1` are 0.158 nM and 0.2 nM.
In test [1], `CCCCN1CCC(COC(=O)c2c3n(c4ccccc24)CCO3)CC1` gave a concentration for half-maximal inhibition (IC50) of 0.1 nM. This molecule had an inhibitory constant (Ki) in test [2] of 0.0794 nM.
In turn, `CCCCN1CCC(COC(=O)c2c3n(c4ccccc24)CCCO3)CC1` had a half-inhibitory concentration (IC50) in test [1] of 0.0251 nM. Affinity in test [2] was put at a Ki of 0.0631 nM.
On the same counts, the results for `CCCCN1CCC(COC(=O)c2cc(Cl)c(N)c3c2OCCO3)CC1` are 0.0794 nM and 0.126 nM.

Broadly, the IC50 is the concentration at which inhibition is half-maximal. As usually defined, the Ki is a measure of affinity in units of concentration, obtained from inhibition or displacement. A low value points to tighter binding.

These data come from ChEMBL document CHEMBL1151042, “5-HT4receptor antagonists : oxazolo, oxazino and oxazepino[3,2-a]indole derivatives” (Bioorg Med Chem Lett, 1994).
